Data reported in the supplement of paper PMC10307832.

Columns and labels:
Experiment in all cases: relative viability (nuclei count vs DMSO), 5 days (fraction); higher = more cells survive
TPCA-1 + Bortezomib = compound: C1=CC(=CC=C1C2=CC(=C(S2)NC(=O)N)C(=O)N)F [TPCA-1] + CC(C)C[C@H](NC(=O)[C@H](Cc1ccccc1)NC(=O)c1cnccn1)B(O)O [Bortezomib] (partner 0.002 µM)
How it was run: (§1)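 Dosing by pin tool came one day after lung cancer cell lines were seeded in 1536-well plates, using either one drug or a fixed anchor-drug dose plus five library-drug doses (not always all listed) in √10 steps. After 5 days, nuclei were counted on 4× images. Relative viability is treated-well nuclei count divided by vehicle-well nuclei count, and values are medians of duplicate plates.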

TPCA-1 + Tozasertib = compound: C1=CC(=CC=C1C2=CC(=C(S2)NC(=O)N)C(=O)N)F [TPCA-1] + Cc1cc(Nc2cc(N3CCN(C)CC3)nc(Sc3ccc(NC(=O)C4CC4)cc3)n2)n[nH]1 [Tozasertib] (partner 0.1 µM)
How it was run: as §1

[1] = compound: C[C@]12O[C@H](C[C@]1(O)CO)n1c3ccccc3c3c4c(c5c6ccccc6n2c5c31)CNC4=O [Lestaurtinib] + CC1(C)CCC(c2ccc(Cl)cc2)=C(CN2CCN(c3ccc(C(=O)NS(=O)(=O)c4ccc(N[C@H](CCN5CCOCC5)CSc5ccccc5)c(S(=O)(=O)C(F)(F)F)c4)cc3)CC2)C1 [Navitoclax] (partner 0.5 µM)
How it was run: as §1

[2] = compound: C[C@]12O[C@H](C[C@]1(O)CO)n1c3ccccc3c3c4c(c5c6ccccc6n2c5c31)CNC4=O [Lestaurtinib] + Nc1nc2[nH]cc(CCc3ccc(C(=O)N[C@@H](CCC(=O)O)C(=O)O)cc3)c2c(=O)[nH]1 [Pemetrexed] (partner 0.2 µM)
How it was run: as §1

Cell Line | relative viability (TPCA-1 + Bortezomib; first compound 0.04 µM) | relative viability (TPCA-1 + Bortezomib; first compound 0.1265 µM) | relative viability (TPCA-1 + Bortezomib; first compound 0.4 µM) | relative viability (TPCA-1 + Bortezomib; first compound 1.265 µM) | relative viability (TPCA-1 + Bortezomib; first compound 4 µM) | relative viability (TPCA-1 + Tozasertib; first compound 0.04 µM) | relative viability (TPCA-1 + Tozasertib; first compound 0.1265 µM) | relative viability (TPCA-1 + Tozasertib; first compound 0.4 µM) | relative viability (TPCA-1 + Tozasertib; first compound 1.265 µM) | relative viability (TPCA-1 + Tozasertib; first compound 4 µM) | relative viability ([1]; first compound 0.005 µM) | relative viability ([1]; first compound 0.01581 µM) | relative viability ([1]; first compound 0.05 µM) | relative viability ([1]; first compound 0.1581 µM) | relative viability ([1]; first compound 0.5 µM) | relative viability ([2]; first compound 0.005 µM) | relative viability ([2]; first compound 0.01581 µM) | relative viability ([2]; first compound 0.05 µM) | relative viability ([2]; first compound 0.1581 µM) | relative viability ([2]; first compound 0.5 µM)
EMC-BAC-2 | 1.12 | 1.07 | 1.11 | 1.08 | 0.932 | 0.251 | 0.306 | 0.302 | 0.498 | 0.25 | 1.25 | 1.22 | 0.891 | 0.656 | 0.346 | 0.452 | 0.429 | 0.488 | 0.352 | 0.308
NCI-H520 | 0.82 | 0.607 | 0.717 | 0.453 | 0.252 | 0.445 | 0.395 | 0.448 | 0.498 | 0.319 | 1.11 | 1.15 | 1.05 | 0.455 | 0.319 | 0.772 | 0.678 | 0.593 | 0.369 | 0.318
NCI-H1755 | 0.948 | 0.9 | 1.05 | 0.881 | 0.832 | 0.57 | 0.526 | 0.52 | 0.511 | 0.374 | 1.01 | 0.944 | 0.633 | 0.265 | 0.223 | 0.478 | 0.463 | 0.41 | 0.36 | 0.353
NCI-H1993 | 1.13 | – | 1.14 | 1.28 | 0.836 | 0.573 | 0.562 | 0.655 | 0.606 | 0.559 | 1.16 | 0.991 | 0.846 | 0.632 | 0.7 | 0.581 | 0.657 | 0.644 | 0.411 | 0.497
NCI-H23 | 1.12 | 0.935 | 0.909 | 1.11 | 0.512 | 0.303 | 0.348 | 0.332 | 0.308 | 0.248 | 0.862 | 0.84 | 0.918 | 0.784 | 0.422 | 0.622 | 0.787 | 0.503 | 0.449 | 0.292
NCI-H1437 | 0.586 | 0.496 | 0.577 | 0.367 | 0.504 | 0.434 | 0.39 | 0.42 | 0.385 | 0.372 | 1.13 | 1.2 | 1 | 1.02 | 0.689 | 0.274 | 0.305 | 0.293 | 0.23 | 0.238
NCI-H2405 | 0.988 | 0.843 | 1.02 | 0.92 | 0.289 | 0.753 | 0.75 | 0.765 | 0.754 | 0.555 | 1 | 0.86 | 0.889 | 0.55 | 0.216 | 1.01 | 1.25 | 1.03 | 0.887 | 0.374
NCI-H2023 | 1.07 | 0.941 | 1.11 | 0.845 | 0.386 | 0.357 | 0.282 | 0.335 | 0.15 | 0.0965 | 1.13 | 1.06 | 0.875 | 0.88 | 0.252 | 0.292 | 0.285 | 0.201 | 0.153 | 0.0898
NCI-H838 | 1.2 | 0.594 | 0.876 | 0.35 | 0.739 | 0.257 | 0.232 | 0.249 | 0.217 | 0.223 | 1.21 | 1.05 | 1 | 0.532 | 0.164 | 0.263 | 0.272 | 0.231 | 0.197 | 0.126
NCI-H1734 | 1.02 | 0.816 | 1.12 | 0.938 | 0.554 | 0.272 | 0.29 | 0.266 | 0.264 | 0.264 | 0.849 | 0.957 | 0.657 | 0.512 | 0.159 | 0.439 | 0.392 | 0.402 | 0.397 | 0.178
NCI-H1650 | 0.26 | 0.219 | 0.204 | 0.203 | 0.208 | 0.386 | – | 0.459 | 0.339 | 0.257 | 1.24 | 1.37 | 1.31 | 1.56 | 0.503 | 0.472 | 0.367 | 0.383 | 0.319 | 0.322
NCI-H596 | 1.07 | 0.976 | 1.07 | – | 0.976 | 0.834 | 0.689 | 0.916 | 0.86 | 0.759 | 0.968 | 0.978 | 0.937 | 1.15 | 0.943 | 0.487 | 0.488 | 0.504 | 0.476 | 0.453
HCC-15 | 1.21 | 0.944 | 1.06 | 1.01 | 0.817 | 0.413 | 0.438 | 0.338 | 0.276 | 0.15 | 0.786 | 0.883 | 0.668 | 0.653 | 0.467 | 0.244 | 0.227 | 0.229 | 0.195 | 0.138
